Legend:
MM074 melanospheres [1] = assay: Melanosphere viability (CellTiterGlo); format: cell-based, human; details: 72h, doses equivalent to 5×IC50
Procedure: (§1) MM074 proliferative/differentiated cell line were seeded (5×10^4 cells) in ultra-low attachment hydrogel-layered 96 well plates in KO DMEM medium supplemented with 20% KSR, AANE, 2 mM Glutamax, Penicillin/Streptomycin and 100 uM Beta-mercaptoethanol. To allow for melanosphere formation, cells were left to grow for 4 days before drug treatment.
To analyze melanosphere viability after drug treatment, cells were treated with CellTiterGlo reagent (Promega) according to the manufacturer's instructions. Luminescence signals were measured with a Centro XS LB 960 microplate reader (Berthold).

Hermes3A = assay: Cell viability assay (PrestoBlue), 72h; details: for IC50: Homo sapiens, Melanocyte, 72 h
Procedure: (§3) Cells were grown at 37°C in 5% CO2 (10% for Hermes 3A) and were regularly checked for mycoplasma contamination. […] Melanoma IGR cell lines (IGR37 and IGR39) were grown in RPMI w/o HEPES (Gibco, Invitrogen) supplemented with 15% FCS and gentamycin.
(§4) To determine the IC50 (half maximal inhibitory concentration) of these cells to various inhibitors, cell viability assays were performed.
(§5) After 72h of treatment with different concentrations of the compounds, cells were treated with PrestoBlue reagent according to the manufacturer's instructions. The absorbance per well was measured with a Cellinsight CX5 microplate reader. Data were analyzed using Prism9 statistical software.

501mel = assay: Cell viability assay (PrestoBlue), 72h; details: Homo sapiens
Procedure: (§6) Cells were grown at 37°C in 5% CO2 (10% for Hermes 3A) and were regularly checked for mycoplasma contamination. […] Melanoma cell lines 501mel and SKmel28 were grown in RPMI w/o HEPES (Gibco, Invitrogen) supplemented with 10% FCS and gentamycin. Vemurafenib-resistant cells (501melVemuR and MM074VemuR) were additionally supplemented with 1.5 µM of vemurafenib. Melanoma IGR cell lines (IGR37 and IGR39) were grown in RPMI w/o HEPES (Gibco, Invitrogen) supplemented with 15% FCS and gentamycin.
as §4, §5

MM011 = assay: Cell viability assay (PrestoBlue), 72h; details: Homo sapiens
Procedure: as §6, §4, §5

MM074 = assay: Cell viability assay (PrestoBlue), 72h; details: Homo sapiens
Procedure: as §6, §4, §5

MM117 = assay: Cell viability assay (PrestoBlue), 72h; details: Homo sapiens
Procedure: as §6, §4, §5

SKMEL-28 = assay: Cell viability assay (PrestoBlue), 72h; details: Homo sapiens, SK-MEL-28, 72 h
Procedure: as §6, §4, §5

IGR37 [2] = assay: Cell viability assay (PrestoBlue), 72h; details: Homo sapiens, IGR-37, 72 h
Procedure: as §6, §4, §5

501mel^VemuR = assay: Cell viability assay (PrestoBlue), 72h; details: Homo sapiens
Procedure: (§7) Cells were grown at 37°C in 5% CO2 (10% for Hermes 3A) and were regularly checked for mycoplasma contamination. MM patient-derived short-term melanoma cultures (MM011, MM074, MM117, MM029, MM047, MM099) were grown in HAM-F10 (Gibco, Invitrogen) supplemented with 10% Fetal Calf Serum (FCS), 25 mM HEPES, 5.2 mM GLUTAMAX and penicillin-streptomycin. Melanoma cell lines 501mel and SKmel28 were grown in RPMI w/o HEPES (Gibco, Invitrogen) supplemented with 10% FCS and gentamycin. Vemurafenib-resistant cells (501melVemuR and MM074VemuR) were additionally supplemented with 1.5 µM of vemurafenib. Melanoma IGR cell lines (IGR37 and IGR39) were grown in RPMI w/o HEPES (Gibco, Invitrogen) supplemented with 15% FCS and gentamycin.
as §4, §5

MM074^VemuR = assay: Cell viability assay (PrestoBlue), 72h; details: Homo sapiens
Procedure: as §7, §4, §5

MM029 = assay: Cell viability assay (PrestoBlue), 72h; details: Homo sapiens
Procedure: as §3, §4, §5

MM047 = assay: Cell viability assay (PrestoBlue), 72h; details: Homo sapiens
Procedure: as §3, §4, §5

MM099 = assay: Cell viability assay (PrestoBlue), 72h; details: Homo sapiens
Procedure: as §3, §4, §5

IGR37 [3] = assay: Cell viability assay (PrestoBlue), 72h, last line of Table 2; details: Homo sapiens, IGR-37, 72 h
Procedure: as §3, §4, §5

all melanoma cells = assay: Cell viability assay (PrestoBlue), summary over all melanoma cells; format: cell-based; details: Homo sapiens, read-out: IC50 values
[4] = tested on: melanoma cell cultures or cell lines; assay: Clonogenic assay; format: cell-based, human; details: 48h at IC50 concentrations, then 10 days without drug
Procedure: Based on the cell viability assays conducted above, the efficacy of lurbinectedin, PM14 or Compound IA on melanoma cell proliferation was investigated. Initially, a clonogenic assay was performed. Cells were drug-treated at IC50 concentrations during 48h before seeding 1×10^3 or 2×10^3 cells in 6-well plates without drug, wherein they grew for 10 days to allow for colony formation. Afterwards, cells were fixed for 10min with 4% formaldehyde solution, washed once with PBS and stained with Crystal Violet solution 0.2% for 15 min. The wells were finally washed twice with deionized water, air dried, scanned and analyzed with Fiji software to count the number of colonies.

melanoma cells [5] = assay: Cell proliferation by CellTrace Violet flow cytometry; format: cell-based, human; details: IC50 concentrations, compared to DMSO
Procedure: (§2) After 48h of incubation, cells were rinsed and incubated with AnnexinV-APC (BD Biosciences). Cell proliferation and apoptosis were detected on a BD LSRFortessaTM Flow Cytometer. Data were analyzed with FlowJo software. To define slow proliferating or apoptotic cells: it was considered that slow proliferating cells represented the 30% of cells with the highest concentration of CellTrace Violet signal in the DMSO control. […] For apoptotic cells, it was considered the 20% of cells with the highest signal of AnnexinV-APC in the DMSO control.

melanoma cells 501mel = assay: Cell cycle analysis by flow cytometry (PI); format: cell-based, human; details: IC50 concentrations
Procedure: For cell cycle analysis, 2×10^6 cells were seeded in 6 well plates. […] After 2 washes with cold PBS, cells were incubated with RNAse A and PI for 1h in the dark, before being analyzed on a BD LSRFortessaTM Flow Cytometer. Data were analysed with FlowJo software.

melanoma cells [6] = assay: Apoptosis by flow cytometry (AnnexinV-APC); format: cell-based, human; details: IC50 concentrations, Annexin V-APC
Procedure: as §2

[7] = tested on: RPB1 (RNA pol II elongation subunit); assay: Immunoblotting of RPB1 in 501mel; format: cell-based, human; details: 24h at 5×IC50
Procedure: Cells were washed once with cold PBS, rinsed with a cell scraper, pelleted and resuspended in LSDB 0.5M buffer (0.5M KCI, 50mM Tris HCl pH 7.9, 20% Glycerol, 1% NP40, 1mM DTT, PIC). Afterwards cells were fully disrupted with 3 cycles of heat shock in liquid nitrogen and 37°C water bath and centrifugated 15min at 14,000rpm to pellet cell debris. Ten micrograms of extract were loaded on SDS-PAGE before transfer to nitro-cellulose membranes and immunoblotting.

MM074 melanospheres [8] = assay: Melanosphere apoptosis (AnnexinV-APC / propidium iodide); format: cell-based, human; details: 72h
Procedure: as §1
For apoptosis assays with 3D-grown melanoma cells, TrypLe Select 10x reagent (Gibco) was used to dissociate melanospheres to obtain single-cell suspensions. These cells were incubated with AnnexinV-APC (Biolegend) and Propidium Iodide (PI, Biolegend). With bivariant dot plots, it was distinguished between viable (AnnexinV-/PI-), early apoptotic (AnnexinV+/PI-), late apoptotic (AnnexinV+/PI+) and necrotic cells (AnnexinV-/PI+).

For `CC(C)(C)c1nc(-c2cccc(NS(=O)(=O)c3c(F)cccc3F)c2F)c(-c2ccnc(N)n2)s1` [dabrafenib], the “cell viability in 3D culture” value (MM074 melanospheres [1]) was “unable to reduce cell viability”, the IC50 (Hermes3A) was greater than 50 nM and the IC50 (501mel) was greater than 50 nM. It also gave an IC50 (MM011) greater than 50 nM, an IC50 (MM074) of 4.68 nM and an IC50 (MM117) greater than 50 nM. For the same molecule, the IC50 (SKMEL-28) was 1 nM, the IC50 (IGR37 [2]) was 25.3 nM and the IC50 (501mel^VemuR) was greater than 50 nM. For the same molecule, the IC50 (MM074^VemuR) was greater than 50 nM, the IC50 (MM029) was greater than 50 nM and the IC50 (MM047) was greater than 50 nM. The IC50 (MM099) was greater than 50 nM and the IC50 (IGR37 [3]) was greater than 50 nM.
In the case of `COc1ccc2[nH]c3c(c2c1)CCN[C@]31CS[C@@H]2c3c(OC(C)=O)c(C)c4c(c3[C@H](COC1=O)N1[C@@H]2[C@H]2c3c(cc(C)c(OC)c3O)C[C@@H]([C@@H]1O)N2C)OCO4` [lurbinectedin], the IC50 (all melanoma cells) is reported as 0.3 to 4.73 nM, the “colony formation (number of colonies)” value [4] is reported as “significant impact” and the melanoma cell proliferation (melanoma cells [5]) is reported as “significant inhibition”. The cell cycle progression (melanoma cells 501mel) was “notable blockade”, the apoptosis (melanoma cells [6]) was “induction of apoptosis” and the “RPB1 (RNA pol II elongation subunit) degradation” value [7] was “minimal”. The “cell viability in 3D culture” value (MM074 melanospheres [1]) was “significant cytotoxic effects”, the “late apoptotic cells positive for Annexin V and propidium iodide” value (MM074 melanospheres [8]) was “substantial population of late apoptotic cells” and the “sensitivity of non-cancerous Hermes3A immortalized melanocytes compared with the melanoma cells” value (Hermes3A; Hermes3A versus melanoma cells) was “less sensitive”. For the same molecule, the IC50 (Hermes3A) was 2.67 nM, the IC50 (501mel) was 0.37 nM and the IC50 (MM011) was 0.47 nM. For the same molecule, the IC50 (MM074) was 1.06 nM, the IC50 (MM117) was 0.3 nM and the IC50 (SKMEL-28) was 1.17 nM. The IC50 (IGR37 [2]) was 0.5 nM, the IC50 (501mel^VemuR) was 1.07 nM and the IC50 (MM074^VemuR) was 1.36 nM. The IC50 (MM029) was 1.28 nM, the IC50 (MM047) was 0.45 nM and the IC50 (MM099) was 0.73 nM. The IC50 (IGR37 [3]) was 0.41 nM.
Work on `CC(=O)Nc1cccc(-n2c(=O)n(C3CC3)c(=O)c3c(Nc4ccc(I)cc4F)n(C)c(=O)c(C)c32)c1` [trametinib] yielded an IC50 (Hermes3A) greater than 50 nM, an IC50 (501mel) of 3 nM and an IC50 (MM011) greater than 50 nM. The IC50 (MM074) was 0.51 nM, the IC50 (MM117) was 10.2 nM and the IC50 (SKMEL-28) was 5.12 nM. It also gave an IC50 (IGR37 [2]) of 0.53 nM, an IC50 (501mel^VemuR) greater than 50 nM and an IC50 (MM074^VemuR) of 4.65 nM. It also gave an IC50 (MM029) greater than 50 nM, an IC50 (MM047) greater than 50 nM and an IC50 (MM099) greater than 50 nM. For the same molecule, the IC50 (IGR37 [3]) was greater than 50 nM.
For `CCCS(=O)(=O)Nc1ccc(F)c(C(=O)c2c[nH]c3ncc(-c4ccc(Cl)cc4)cc23)c1F` [vemurafenib], the IC50 (Hermes3A) was greater than 10000 nM, the IC50 (501mel) was 2440 nM and the IC50 (MM011) was greater than 10000 nM. It also gave an IC50 (MM074) of 225 nM, an IC50 (MM117) of 488 nM and an IC50 (SKMEL-28) greater than 10000 nM. The IC50 (IGR37 [2]) was 517 nM, the IC50 (501mel^VemuR) was greater than 10000 nM and the IC50 (MM074^VemuR) was greater than 10000 nM. The IC50 (MM029) was greater than 10000 nM, the IC50 (MM047) was greater than 10000 nM and the IC50 (MM099) was greater than 10000 nM. It also gave an IC50 (IGR37 [3]) greater than 10000 nM.

Reference: patent EP4563149A1, “LURBINECTEDIN, ECUBECTEDIN AND A RELATED COMPOUND FOR USE IN THE TREATMENT OF SKIN CANCERS” (Pharma Mar, S.A., priority 2023, dated 2025)
